According to patent US4223032A, “Triazolo [4,5-b] quinolines and prophylaxis of allergic diseases with them” (Beecham Group Limited, priority 1977, dated 1980):

Test system: passive cutaneous anaphylaxis (PCA)
Assay: Passive Cutaneous Anaphylaxis (PCA)
Assay type: in vivo, Male Wistar rats
Conditions: rat, i.v., carrier PBS with NaHCO3, time 0 mins before antigen challenge
Method: Passive Cutaneous Anaphylaxis (PCA)
Serum containing heat labile homocytotropic antibody was raised in rats to crystallized ovalbumin XOA by the method of Mota (I. Mota, Immunology, 7,681 [1964] using Bordettela pertussis vaccine as adjuvant.
Passive cutaneous anaphylaxis (PCA) was carried out by a method based on that of Ovary and Bier, (A. Ovary and O. G. Bier, Proc. Soc. Exp. Biol. Med. 81, 584, [1952]) as modified by Goose and Blair. (Immunology 16, 749 [1969]).
Male Wistar rats of 250-300 g. were given 0.1 ml. of each of six twofold serial dilutions of pooled antiserum in 0.9% saline injected intradermally into separate sites on their shaved backs. Later (72 hrs.) the animals were challenged by intravenous injection of 0.3 ml. of a 1% solution of ovalbumin in an isotonic solution of saline buffered with 0.05 M, pH 7.2, Sorenson Buffer (PBS), mixed with 0.2 ml. of a 5% solution of Pontamine Sky Blue (6BX C.I. 24410, Raymond A. Lamb, London) in isotonic saline. The rats were killed after 20 min and the diameter of the blue wheals at the antibody injection sites was measured on the outer surface of the skin. The starting dilution of the serum was adjusted so that there was no response, after challenge, at the injection site of the highest dilution and a maximum response at the lowest dilutions. Typically six twofold serial dilutions of the serum from 1/4 to 1/128 were used.
Compounds were tested for their ability to reduce the diameter of the wheals at those intradermal sites which in control animals gave less than maximum response. Each dose of the compound was administered to six rats at a measured time prior to intravenous challenge with ovalbumin. Control groups of six rats were given the same volume (0.2 ml/100 g) of carrier fluid at the same time prior to the challenge.
The results were calculated as follows. % inhibition of PCA=100 (1-a/b) where a=the sum of the diameters of the wheals produced in the test animal at the sites of antibody dilutions as used in control groups and b=the mean sum of the diameters of the wheals produced in the control group of animals at those antibody sites where at least five out of six of the animals gave less than maximum response. A typical variation in the control group of animals was SEM± 6%.

| Compound | % Inhib PCA (5 mg/kg) | % Inhib PCA (20 mg/kg) | % Inhib PCA (10 mg/kg) | % Inhib PCA (2 mg/kg) | % Inhib PCA (4 mg/kg) |
| --- | --- | --- | --- | --- | --- |
| O=c1c2cc(Cl)ccc2[nH]c2nn[nH]c12 [Example 3, 7-Chloro-4,9-dihydro-9-oxo-1H-triazolo[4,5-b] quinoline] | 36% | 70% | – | – | – |
| Cc1ccc2[nH]c3nn[nH]c3c(=O)c2c1 [Example 2, 4,9-dihydro-7-methyl-9-oxo-1H-triazolo[4,5-b] quinoline] | 16% | – | 65% | – | – |
| O=c1c2ccccc2[nH]c2nn[nH]c12 [Example 1, 4,9-Dihydro-9-oxo-1H-triazolo[4,5-b] quinoline] | – | – | 79% | 14% | 22% |
